Measured values taken from ChEMBL document CHEMBL3286374, “Muchimangins G-J, fully substituted xanthones with a diphenylmethyl substituent, from Securidaca longepedunculata” (J Nat Prod, 2014).
Activity calls are given as the source filed them. The calls are words filed in the database; no cut-off is given here.

How the values were obtained:
[1] = system: PANC-1; assay: Cytotoxicity against human PANC1 cells in nutrient-rich DMEM media by WST8 assay; format: functional, cell-based
[2] = system: PANC-1; assay: Cytotoxicity against human PANC1 cells in nutrient-deprived NDM media by WST8 assay; format: functional, cell-based

With `COc1cc(OC)c(C(c2ccccc2)c2c(O)c(OC)c3oc4c(OC)c5c(c(OC)c4c(=O)c3c2O)OCO5)cc1OC` (stereo not drawn) the Activity [1] was “inactive” and the Activity [2] was “inactive”.
In the case of `COc1cc(OC)c(C(c2ccccc2)c2c(O)c(OC)c3oc4c(OC)c(OC)c(OC)c(O)c4c(=O)c3c2O)cc1OC` (stereo not drawn), the Activity [1] is reported as “inactive” and the Activity [2] is reported as “inactive”.
`COc1cc(OC)c(C(c2ccccc2)c2c(O)c(OC)c3oc4c(OC)c(O)c(OC)c(O)c4c(=O)c3c2O)cc1OC` (stereo not drawn) was tested, and the Activity [1] was “inactive” and the Activity [2] was “inactive”.
With `COc1cc(OC)c(C(c2ccccc2)c2c(O)c(OC)c3oc4c(O)c(OC)c(OC)c(OC)c4c(=O)c3c2O)cc1OC` (stereo not drawn) the Activity [1] was “inactive” and the Activity [2] was “inactive”.
